# Results: US10856562B2, “Flavor composition and edible compositions containing same” (MARS, INCORPORATED, priority 2013, dated 2020)
# Square brackets hold non-standard residues; d marks the D form. Ends that are not written are not given here. pGlu = O=C1CC[C@@H](C(=O)O)N1
# Tested on: panelists
# Experiment: Consensus attribute scores of flavor enhancers in Uncle Ben's Garden Vegetable Ready rice
# Assay type: in vivo, human
# Design: key to Cooked White Rice / Vegetable Oil / Vegetable Complex / Cooked Green Vegetable / Cooked Corn / Sweet (BASIC TASTES) / Salt (BASIC TASTES) / Mouthdrying (Texture) / Residual Mouthcoating (Texture) / Total Aromatics / Bitter (BASIC TASTES): 15-point scale, 0 = none, 15 = very strong
# Conditions: for Bitter (BASIC TASTES) / Black Pepper / Cooked Corn / Cooked Green Vegetable / Cooked White Rice / Dehydrated onion/garlic / HVP/Brothy / Mouthdrying (Texture) / Residual Mouthcoating (Texture) / Salt (BASIC TASTES) / Salt Burn (Chemical Feeling Factors) / Sweet (BASIC TASTES) / Total Aromatics / Umami (Chemical Feeling Factors) / Vegetable Complex / Vegetable Oil / Mineral/Flint: rice
# Experimental: Descriptive attributes (e.g., taste, flavor and chemical feeling factors) of three use levels of pGlu-Cys (FE-35), pGlu-Cys-Gly (FE-36), pGlu-Cys-Cys (FE-37), pGlu-Cys-Val (FE-38) and pGlu-Val-Cys (UE-30) flavor composition peptides were determined. The three use levels were as follows: 1.0 ppb, 10.0 ppb and 100.0 ppb.
# Data was collected for the attributes of the product in-mouth for the use levels according to the following protocol: • The samples were analyzed for flavor by six to nine members of a panel, trained and experienced in flavor evaluation using the Spectrum™ method. Samples were evaluated across multiple panel sessions. • The strength of each attribute was rated on a 15-point scale, where 0=none and 15=very strong. • This scale incorporates the ability to use tenths of a point and therefore has the potential of 150 scale differentiations. • The scale may be expanded beyond 15 points to include extreme ratings if necessary.
# Preparation of Rice Samples • Each flavor enhancer was tested in Uncle Ben's Garden Vegetable Ready rice matrix at 3 different concentrations: 1 ppb, 10 ppb and 100 ppb. A total of 15 points with flavor enhancers were prepared for sensory evaluation. Additionally, 15 control samples were prepared. Each point had 2 samples (test and control) and was made from one pouch of rice. • Directions to prepare the solutions: • The 15 ready- to eat pouches were microwaved according to the procedure found on the back of the pouch: (1) squeeze pouch to separate rice, (2) tear two inches to vent, (3) heat on High for 90 seconds and (4) remove from microwave using COOL TOUCH area on untorn side. • From each pouch 124.75 g (test sample) and 99.8 g (control) were weighed out. The test sample had the flavor enhancer and/or salt. The control sample only had salt added. • The flavor enhancer and/or salt (non-iodized salt) were weighed in a soufflé cup. The weighed amount of flavor enhancer and/or salt was added to the sub-sampled rice. The rice was stirred and mixed to evenly distribute the salt added. • Some rice was placed back into the soufflé cup, sealed, and the cup was shook to get the flavor enhancer and/or salt that may have been stuck on the walls of the soufflé cup. After shaking the soufflé cup, the rice was added back to the original sub-sampled rice and stirred/mixed again. • Each sample (test and control) was microwaved for another 30 seconds (or until warm) to ensure that the salts/compounds were going completely into the solutions. • All samples (test and control) were tasted at the same temperature. • Each test sample had 0.2% NaCl added and flavor enhancers at the specified concentrations.
# A summary of the concentrations of NaCl and flavor composition peptides in the rice samples is described in table 23. The first value of each cell represents a single sample amount of an ingredient in milligrams, and the second number in parenthesis is a doubling of the ingredient (in grams) for use in a doubled size sample.
# The panelists evaluated each sample for the attributes described by table 25.
substance,measurement,setting,value
[pGlu]-Cys-Gly [FE-36],Salt burn in rice,100 ppb,low level of salt burn
same,Bitter in rice,"all samples (1, 10, 100 ppb)",slightly bitter
same,Cooked green vegetable in rice compared to the Control,"all samples (1, 10, 100 ppb)",low level of cooked green vegetable
same,"Mouthdrying in rice, not seen in the Control","all samples (1, 10, 100 ppb)",have mouthdrying
same,Umami feeling factor in rice compared to the Control,"all samples (1, 10, 100 ppb)",higher in umami
same,Bitter (BASIC TASTES),1.0 ppb (5 ppm),0.5
same,Black Pepper,1.0 ppb (5 ppm),1.0
same,Cooked Corn,1.0 ppb (5 ppm),1.0
same,Cooked Green Vegetable,1.0 ppb (5 ppm),0.5
same,Cooked White Rice,1.0 ppb (5 ppm),3.0
same,Dehydrated onion/garlic,1.0 ppb (5 ppm),1.0
same,HVP/Brothy,1.0 ppb (5 ppm),1.0
same,Mouthdrying (Texture),1.0 ppb (5 ppm),1.0
same,Residual Mouthcoating (Texture),1.0 ppb (5 ppm),1.0
same,Salt (BASIC TASTES),1.0 ppb (5 ppm),11.5
same,Salt Burn (Chemical Feeling Factors),1.0 ppb (5 ppm),0.0
same,Sweet (BASIC TASTES),1.0 ppb (5 ppm),3.5
same,Total Aromatics,1.0 ppb (5 ppm),6.0
same,Umami (Chemical Feeling Factors),1.0 ppb (5 ppm),1.5
same,Vegetable Complex,1.0 ppb (5 ppm),1.5
same,Vegetable Oil,1.0 ppb (5 ppm),0.8
same,Bitter (BASIC TASTES),10.0 ppb (50 ppm),1.0
same,Black Pepper,10.0 ppb (50 ppm),1.0
same,Cooked Corn,10.0 ppb (50 ppm),1.0
same,Cooked Green Vegetable,10.0 ppb (50 ppm),1.0
same,Cooked White Rice,10.0 ppb (50 ppm),3.0
same,Dehydrated onion/garlic,10.0 ppb (50 ppm),1.5
same,HVP/Brothy,10.0 ppb (50 ppm),1.0
same,Mouthdrying (Texture),10.0 ppb (50 ppm),1.5
same,Residual Mouthcoating (Texture),10.0 ppb (50 ppm),1.0
same,Salt (BASIC TASTES),10.0 ppb (50 ppm),13.5
same,Salt Burn (Chemical Feeling Factors),10.0 ppb (50 ppm),0.0
same,Sweet (BASIC TASTES),10.0 ppb (50 ppm),3.5
same,Total Aromatics,10.0 ppb (50 ppm),6.5
same,Umami (Chemical Feeling Factors),10.0 ppb (50 ppm),3.0
same,Vegetable Complex,10.0 ppb (50 ppm),2.0
same,Vegetable Oil,10.0 ppb (50 ppm),0.8
same,Bitter (BASIC TASTES),100 ppb (50 ppm),0.5
same,Black Pepper,100 ppb (50 ppm),0.8
same,Cooked Corn,100 ppb (50 ppm),0.8
same,Cooked Green Vegetable,100 ppb (50 ppm),0.8
same,Cooked White Rice,100 ppb (50 ppm),3.0
same,Dehydrated onion/garlic,100 ppb (50 ppm),1.3
same,HVP/Brothy,100 ppb (50 ppm),1.0
same,Mouthdrying (Texture),100 ppb (50 ppm),2.0
same,Residual Mouthcoating (Texture),100 ppb (50 ppm),1.0
same,Salt (BASIC TASTES),100 ppb (50 ppm),13.5
same,Salt Burn (Chemical Feeling Factors),100 ppb (50 ppm),1.0
same,Sweet (BASIC TASTES),100 ppb (50 ppm),3.5
same,Total Aromatics,100 ppb (50 ppm),6.3
same,Umami (Chemical Feeling Factors),100 ppb (50 ppm),4.0
same,Vegetable Complex,100 ppb (50 ppm),1.5
same,Vegetable Oil,100 ppb (50 ppm),0.8
[pGlu]-Cys-Val [FE-38],Cooked green vegetable in rice compared to the Control,1 & 100 ppb,low level of cooked green vegetable
same,Bitter in rice,"all samples (1, 10, 100 ppb)",bitter
same,"Mineral/flint note in rice, not seen in the Control","all samples (1, 10, 100 ppb)",low mineral/flint note
same,"Mouthdrying in rice, not seen in the Control","all samples (1, 10, 100 ppb)",have mouthdrying
same,Salt burn feeling factor in rice compared to the Control,"all samples (1, 10, 100 ppb)",higher
same,Umami feeling factor in rice compared to the Control,"all samples (1, 10, 100 ppb)",higher
same,Bitter (BASIC TASTES),1.0 ppb (5 ppm),0.8
same,Black Pepper,1.0 ppb (5 ppm),1.0
same,Cooked Corn,1.0 ppb (5 ppm),0.8
same,Cooked Green Vegetable,1.0 ppb (5 ppm),0.8
same,Cooked White Rice,1.0 ppb (5 ppm),3.0
same,Dehydrated onion/garlic,1.0 ppb (5 ppm),1.0
same,HVP/Brothy,1.0 ppb (5 ppm),1.0
same,Mineral/Flint,1.0 ppb (5 ppm),1.0
same,Mouthdrying (Texture),1.0 ppb (5 ppm),1.8
same,Residual Mouthcoating (Texture),1.0 ppb (5 ppm),1.0
same,Salt (BASIC TASTES),1.0 ppb (5 ppm),13.8
same,Salt Burn (Chemical Feeling Factors),1.0 ppb (5 ppm),1.0
same,Sweet (BASIC TASTES),1.0 ppb (5 ppm),3.5
same,Total Aromatics,1.0 ppb (5 ppm),6.3
same,Umami (Chemical Feeling Factors),1.0 ppb (5 ppm),2.0
same,Vegetable Complex,1.0 ppb (5 ppm),1.5
same,Vegetable Oil,1.0 ppb (5 ppm),0.8
same,Bitter (BASIC TASTES),10.0 ppb (50 ppm),1.2
same,Black Pepper,10.0 ppb (50 ppm),1.0
same,Cooked Corn,10.0 ppb (50 ppm),1.0
same,Cooked Green Vegetable,10.0 ppb (50 ppm),0.0
same,Cooked White Rice,10.0 ppb (50 ppm),3.0
same,Dehydrated onion/garlic,10.0 ppb (50 ppm),0.8
same,HVP/Brothy,10.0 ppb (50 ppm),1.0
same,Mineral/Flint,10.0 ppb (50 ppm),1.5
same,Mouthdrying (Texture),10.0 ppb (50 ppm),2.0
same,Residual Mouthcoating (Texture),10.0 ppb (50 ppm),1.0
same,Salt (BASIC TASTES),10.0 ppb (50 ppm),13.0
same,Salt Burn (Chemical Feeling Factors),10.0 ppb (50 ppm),1.0
same,Sweet (BASIC TASTES),10.0 ppb (50 ppm),3.3
same,Total Aromatics,10.0 ppb (50 ppm),6.0
same,Umami (Chemical Feeling Factors),10.0 ppb (50 ppm),2.0
same,Vegetable Complex,10.0 ppb (50 ppm),1.0
same,Vegetable Oil,10.0 ppb (50 ppm),1.0
same,Bitter (BASIC TASTES),100 ppb (50 ppm),0.8
same,Black Pepper,100 ppb (50 ppm),1.0
same,Cooked Corn,100 ppb (50 ppm),0.8
same,Cooked Green Vegetable,100 ppb (50 ppm),0.8
same,Cooked White Rice,100 ppb (50 ppm),3.0
same,Dehydrated onion/garlic,100 ppb (50 ppm),1.0
same,HVP/Brothy,100 ppb (50 ppm),1.5
same,Mineral/Flint,100 ppb (50 ppm),1.0
same,Mouthdrying (Texture),100 ppb (50 ppm),2.5
same,Residual Mouthcoating (Texture),100 ppb (50 ppm),1.0
same,Salt (BASIC TASTES),100 ppb (50 ppm),13.5
same,Salt Burn (Chemical Feeling Factors),100 ppb (50 ppm),1.3
same,Sweet (BASIC TASTES),100 ppb (50 ppm),3.5
same,Total Aromatics,100 ppb (50 ppm),6.5
same,Umami (Chemical Feeling Factors),100 ppb (50 ppm),3.0
same,Vegetable Complex,100 ppb (50 ppm),1.5
same,Vegetable Oil,100 ppb (50 ppm),0.8
[pGlu]-Val-Cys [UE-30],Mouthdrying in rice,10 and 100 ppb,low mouthdrying
same,Cooked green vegetable in rice compared to the Control,"all samples (1, 10, 100 ppb)",low level of cooked green vegetable
same,Salt burn feeling factor in rice compared to the Control,"all samples (1, 10, 100 ppb)",higher
same,Salt in rice compared to the Control,"all samples (1, 10, 100 ppb)",saltier than the Control
same,Umami feeling factor in rice compared to the Control,"all samples (1, 10, 100 ppb)",higher
same,Black Pepper,1.0 ppb (5 ppm),1.3
same,Cooked Corn,1.0 ppb (5 ppm),0.8
same,Cooked Green Vegetable,1.0 ppb (5 ppm),0.8
same,Cooked White Rice,1.0 ppb (5 ppm),3.0
same,Dehydrated onion/garlic,1.0 ppb (5 ppm),1.0
same,HVP/Brothy,1.0 ppb (5 ppm),1.5
same,Mineral/Flint,1.0 ppb (5 ppm),0.0
same,Mouthdrying (Texture),1.0 ppb (5 ppm),0.0
same,Residual Mouthcoating (Texture),1.0 ppb (5 ppm),1.0
same,Salt (BASIC TASTES),1.0 ppb (5 ppm),15.0
same,Salt Burn (Chemical Feeling Factors),1.0 ppb (5 ppm),1.0
same,Sweet (BASIC TASTES),1.0 ppb (5 ppm),3.0
same,Total Aromatics,1.0 ppb (5 ppm),6.8
same,Umami (Chemical Feeling Factors),1.0 ppb (5 ppm),1.5
same,Vegetable Complex,1.0 ppb (5 ppm),1.5
same,Vegetable Oil,1.0 ppb (5 ppm),0.8
same,Black Pepper,10.0 ppb (50 ppm),1.5
same,Cooked Corn,10.0 ppb (50 ppm),1.0
same,Cooked Green Vegetable,10.0 ppb (50 ppm),1.0
same,Cooked White Rice,10.0 ppb (50 ppm),3.0
same,Dehydrated onion/garlic,10.0 ppb (50 ppm),1.0
same,HVP/Brothy,10.0 ppb (50 ppm),1.5
same,Mineral/Flint,10.0 ppb (50 ppm),0.5
same,Mouthdrying (Texture),10.0 ppb (50 ppm),1.8
same,Residual Mouthcoating (Texture),10.0 ppb (50 ppm),1.0
same,Salt (BASIC TASTES),10.0 ppb (50 ppm),15.0
same,Salt Burn (Chemical Feeling Factors),10.0 ppb (50 ppm),0.8
same,Sweet (BASIC TASTES),10.0 ppb (50 ppm),3.5
same,Total Aromatics,10.0 ppb (50 ppm),6.8
same,Umami (Chemical Feeling Factors),10.0 ppb (50 ppm),2.0
same,Vegetable Complex,10.0 ppb (50 ppm),1.8
same,Vegetable Oil,10.0 ppb (50 ppm),0.8
same,Black Pepper,100 ppb (50 ppm),1.5
same,Cooked Corn,100 ppb (50 ppm),1.0
same,Cooked Green Vegetable,100 ppb (50 ppm),1.0
same,Cooked White Rice,100 ppb (50 ppm),3.0
same,Dehydrated onion/garlic,100 ppb (50 ppm),1.0
same,HVP/Brothy,100 ppb (50 ppm),1.5
same,Mineral/Flint,100 ppb (50 ppm),0.5
same,Mouthdrying (Texture),100 ppb (50 ppm),1.5
same,Residual Mouthcoating (Texture),100 ppb (50 ppm),1.5
same,Salt (BASIC TASTES),100 ppb (50 ppm),16.0
same,Salt Burn (Chemical Feeling Factors),100 ppb (50 ppm),1.3
same,Sweet (BASIC TASTES),100 ppb (50 ppm),3.5
same,Total Aromatics,100 ppb (50 ppm),6.8
same,Umami (Chemical Feeling Factors),100 ppb (50 ppm),3.0
same,Vegetable Complex,100 ppb (50 ppm),1.8
same,Vegetable Oil,100 ppb (50 ppm),0.5
